PubChem BioAssay (NCI)
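Exposure lasted 48 hours, with cells grown in 96-well plates and compounds tested at five concentrations. Definition used: TGI = concentration required for complete inhibition of growth.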

What was measured:
Assay in all cases: inhibition of tumour cell growth, NCI panel, 48 h
786-0 renal = test system: 786-0 renal
A498 renal = test system: A498 renal
A549 NSCLC = test system: A549 NSCLC
ACHN renal = test system: ACHN renal
CAKI-1 renal = test system: CAKI-1 renal
COLO 205 colon = test system: COLO 205 colon
DU-145 prostate = test system: DU-145 prostate
EKVX NSCLC = test system: EKVX NSCLC
HCT-116 colon = test system: HCT-116 colon
HL-60(TB) leukemia = test system: HL-60(TB) leukemia
HOP-62 NSCLC = test system: HOP-62 NSCLC
HOP-92 NSCLC = test system: HOP-92 NSCLC
HS 578T breast = test system: HS 578T breast
HT29 colon = test system: HT29 colon
IGROV1 ovarian = test system: IGROV1 ovarian
K-562 leukemia = test system: K-562 leukemia
KM12 colon = test system: KM12 colon
LOX IMVI melanoma = test system: LOX IMVI melanoma
M14 melanoma = test system: M14 melanoma
MALME-3M melanoma = test system: MALME-3M melanoma
MCF7 breast = test system: MCF7 breast
MDA-MB-231 breast = test system: MDA-MB-231 breast
MDA-MB-435 = test system: MDA-MB-435
MDA-N = test system: MDA-N
MOLT-4 leukemia = test system: MOLT-4 leukemia
NCI-H226 lung = test system: NCI-H226 lung
NCI-H522 lung = test system: NCI-H522 lung
OVCAR-3 ovarian = test system: OVCAR-3 ovarian
OVCAR-4 ovarian = test system: OVCAR-4 ovarian
OVCAR-5 ovarian = test system: OVCAR-5 ovarian
OVCAR-8 ovarian = test system: OVCAR-8 ovarian
PC-3 prostate = test system: PC-3 prostate
RPMI-8226 leukemia = test system: RPMI-8226 leukemia
RXF 393 renal = test system: RXF 393 renal
SF-268 CNS = test system: SF-268 CNS
SF-295 CNS = test system: SF-295 CNS
SF-539 CNS = test system: SF-539 CNS
SK-MEL-2 melanoma = test system: SK-MEL-2 melanoma
SK-MEL-28 melanoma = test system: SK-MEL-28 melanoma
SK-MEL-5 melanoma = test system: SK-MEL-5 melanoma
SK-OV-3 ovarian = test system: SK-OV-3 ovarian
SN12C renal = test system: SN12C renal
SNB-19 CNS = test system: SNB-19 CNS
SNB-75 CNS = test system: SNB-75 CNS
SR leukemia = test system: SR leukemia
SW-620 colon = test system: SW-620 colon
T-47D breast = test system: T-47D breast
TK-10 renal = test system: TK-10 renal
U251 CNS = test system: U251 CNS
UACC-257 melanoma = test system: UACC-257 melanoma
UO-31 renal = test system: UO-31 renal
BT-549 breast = test system: BT-549 breast
CCRF-CEM leukemia = test system: CCRF-CEM leukemia
HCC-2998 colon = test system: HCC-2998 colon
HCT-15 colon = test system: HCT-15 colon
NCI-H23 lung = test system: NCI-H23 lung
NCI-H460 lung = test system: NCI-H460 lung
NCI/ADR-RES ovarian = test system: NCI/ADR-RES ovarian

Measured: TGI

O=c1c2cc(Br)cc(Br)c2[nH]c(=S)n1-c1ccc(N=Nc2ccc(O)c3cccnc23)cc1
31.3 µM: SF-539 CNS
34.5 µM: IGROV1 ovarian
41.6 µM: HOP-92 NSCLC
57.5 µM: SF-268 CNS
43.2 µM: MALME-3M melanoma
61.2 µM: SNB-19 CNS
28.5 µM: OVCAR-3 ovarian
25.9 µM: MCF7 breast
62.3 µM: U251 CNS
60.8 µM: NCI-H522 lung
29 µM: SK-MEL-5 melanoma
not listed: BT-549 breast | CCRF-CEM leukemia | HCC-2998 colon | HCT-15 colon | NCI-H23 lung | NCI-H460 lung | NCI/ADR-RES ovarian
> 100 µM: all other assays above

CC(C)(C)C(=O)Nc1c(C=O)ccc2[nH]cnc12
73.7 µM: MOLT-4 leukemia
not listed: DU-145 prostate | HL-60(TB) leukemia | HS 578T breast | HT29 colon | MALME-3M melanoma | SR leukemia
> 100 µM: all other assays above
